Experimental data: patent US20250034216A1, “STEREOSELECTIVE COVALENT LIGANDS FOR ONCOGENIC AND IMMUNOLOGICAL PROTEINS” (The Scripps Research Institute, priority 2021, published 2025)

Columns and labels:
[1] = target: T1, ANKRD46_C61 (Homo sapiens, UniProt Q86W74); test: IA-DTB cysteine engagement; format: binding; details: 22Rv1 cells, 20 μM probe, 1 h, relative to DMSO
T1 construct: endogenous in cells; host or cells: 22Rv1
T1 sequence (Q86W74 1-228): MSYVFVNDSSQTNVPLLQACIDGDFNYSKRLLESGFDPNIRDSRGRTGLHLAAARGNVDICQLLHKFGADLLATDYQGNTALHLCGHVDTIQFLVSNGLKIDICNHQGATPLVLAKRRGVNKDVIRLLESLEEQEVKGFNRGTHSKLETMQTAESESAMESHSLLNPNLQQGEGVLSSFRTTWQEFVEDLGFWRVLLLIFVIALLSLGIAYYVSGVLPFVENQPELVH
Summary of the method: (§1)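 Read-out is TMT-based cysteine engagement, expressed as each reporter ion intensity divided by the average of the DMSO channels. Before that, probe-treated cell lysates were capped with IA-DTB, digested, enriched on streptavidin and TMT-tagged. PSMs with DMSO summed intensity <10,000 or DMSO CV >0.5 were excluded.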

[2] = target: T2, NSD2_C1018 (Homo sapiens, UniProt O96028); test: IA-DTB cysteine engagement; format: binding; details: 22Rv1 cells, 20 μM probe, 1 h, relative to DMSO
T2 construct: endogenous in cells; host or cells: 22Rv1
T2 sequence (O96028 1-1365): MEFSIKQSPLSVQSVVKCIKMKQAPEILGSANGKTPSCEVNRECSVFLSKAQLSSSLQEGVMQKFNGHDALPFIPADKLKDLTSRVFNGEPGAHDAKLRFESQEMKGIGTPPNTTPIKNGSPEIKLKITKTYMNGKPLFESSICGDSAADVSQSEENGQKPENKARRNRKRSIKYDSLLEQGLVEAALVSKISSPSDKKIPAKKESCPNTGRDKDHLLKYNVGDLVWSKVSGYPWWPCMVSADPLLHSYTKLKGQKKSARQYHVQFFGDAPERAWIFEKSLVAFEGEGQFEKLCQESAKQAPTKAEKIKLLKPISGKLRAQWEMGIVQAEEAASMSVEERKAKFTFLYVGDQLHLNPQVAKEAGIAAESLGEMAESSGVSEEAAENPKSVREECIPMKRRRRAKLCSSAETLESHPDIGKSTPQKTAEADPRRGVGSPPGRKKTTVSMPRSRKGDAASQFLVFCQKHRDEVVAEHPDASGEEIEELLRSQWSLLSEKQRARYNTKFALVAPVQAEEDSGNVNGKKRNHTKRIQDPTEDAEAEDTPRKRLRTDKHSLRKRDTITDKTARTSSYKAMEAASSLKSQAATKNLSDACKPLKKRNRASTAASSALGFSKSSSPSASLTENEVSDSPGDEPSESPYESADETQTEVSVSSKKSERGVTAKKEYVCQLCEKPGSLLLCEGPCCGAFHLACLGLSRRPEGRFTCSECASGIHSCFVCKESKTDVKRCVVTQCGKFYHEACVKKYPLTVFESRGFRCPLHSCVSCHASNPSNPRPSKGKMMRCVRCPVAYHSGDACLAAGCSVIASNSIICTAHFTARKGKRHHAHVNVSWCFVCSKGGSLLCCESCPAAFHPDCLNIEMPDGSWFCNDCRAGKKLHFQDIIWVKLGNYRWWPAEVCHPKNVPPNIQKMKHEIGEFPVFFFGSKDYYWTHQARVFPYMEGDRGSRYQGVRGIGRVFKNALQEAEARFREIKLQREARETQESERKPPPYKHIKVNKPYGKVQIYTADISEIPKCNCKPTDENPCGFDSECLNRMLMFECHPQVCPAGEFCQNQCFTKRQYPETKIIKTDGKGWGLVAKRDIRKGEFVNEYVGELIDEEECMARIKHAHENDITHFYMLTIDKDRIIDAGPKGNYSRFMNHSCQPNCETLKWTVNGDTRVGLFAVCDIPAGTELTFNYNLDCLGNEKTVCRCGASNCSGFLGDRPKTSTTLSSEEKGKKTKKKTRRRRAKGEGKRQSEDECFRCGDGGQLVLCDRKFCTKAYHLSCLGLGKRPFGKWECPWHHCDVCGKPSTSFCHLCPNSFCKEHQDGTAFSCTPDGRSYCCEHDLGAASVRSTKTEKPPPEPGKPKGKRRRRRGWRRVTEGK
Summary of the method: as §1

| Structure (SMILES) | % engagement ANKRD46_C61 [1] [%] | % engagement NSD2_C1018 [2] [%] |
| --- | --- | --- |
| C=CC(=O)N1C[C@@H](c2ccc(Br)cc2)[C@H]1C(=O)Nc1cccc2cccnc12 [MY-1A, (2S,3R)-1-acryloyl-3-(4-bromophenyl)-N-(quinolin-8-yl)azetidine-2-carboxamide] | 17.5 | 16.5 |
| C=CC(=O)N1C[C@H](c2ccc(Br)cc2)[C@@H]1C(=O)Nc1cccc2cccnc12 [MY-1B, (2R,3S)-1-acryloyl-3-(4-bromophenyl)-N-(quinolin-8-yl)azetidine-2-carboxamide] | 28.5 | 43.75 |
| C=CC(=O)N1C[C@H](c2ccc(Br)cc2)[C@H]1C(=O)Nc1cccc2cccnc12 [MY-3A, (2S,3S)-1-acryloyl-3-(4-bromophenyl)-N-(quinolin-8-yl)azetidine-2-carboxamide] | 5.5 | 36.75 |
| C=CC(=O)N1C[C@H](c2ccc(Br)cc2)[C@H]1C(=O)Nc1cccc2cccnc12 [MY-3B, (2S,3S)-1-acryloyl-3-(4-bromophenyl)-N-(quinolin-8-yl)azetidine-2-carboxamide] | 66.5 | 67 |
